Measurements: BindingDB's records for doi:10.7270/Q2DF6PMF (Nmmlsc, 2007)

Biological target: T1, N-formyl peptide receptor 2 (Homo sapiens, UniProt P25090)
T1 sequence (P25090 whole entry): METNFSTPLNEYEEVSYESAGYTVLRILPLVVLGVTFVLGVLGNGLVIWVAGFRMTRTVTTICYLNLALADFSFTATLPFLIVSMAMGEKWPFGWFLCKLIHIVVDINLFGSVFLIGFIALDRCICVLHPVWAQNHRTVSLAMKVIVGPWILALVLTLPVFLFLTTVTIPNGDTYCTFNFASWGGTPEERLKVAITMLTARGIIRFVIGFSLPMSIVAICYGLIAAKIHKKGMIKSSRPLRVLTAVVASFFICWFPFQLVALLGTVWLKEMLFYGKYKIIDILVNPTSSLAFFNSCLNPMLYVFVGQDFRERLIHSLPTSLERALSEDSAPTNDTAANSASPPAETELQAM
Test: concentration-dependent FPRL1 ligand displacement – cell-based, FPR counter-screen, fluorescent ligand, dose response (AID 520)

Row | IC50 [µM] | Ki [µM] | SMILES
1 | > 66.7 | – | CCc1c(C)nc2c(C#N)c(C)[nH]n2c1=O [SMR000013340]
2 | > 66.7 | – | Cc1ccc(NC(=O)C2C(=O)N(CCO)C3(C)CC2c2ccccc2O3)cc1 (configuration not stated) [SMR000015827]
3 | > 66.7 | – | COc1ccccc1-n1c(CNC(=O)c2ccco2)nnc1SCC(=O)Nc1ccc(F)cc1 [SMR000021507]
4 | > 66.7 | > 40.3 | CCN(CC)c1ccc(C=NC(C#N)C(=N)C#N)cc1 (configuration not stated) [SMR000023871]
5 | > 66.7 | > 40.3 | COc1cccc(OC)c1C(=O)C(C#N)c1nc2ccccc2[nH]1 (configuration not stated) [SMR000024183]
6 | > 66.7 | – | O=S(=O)(c1c[nH]cn1)N1CCc2ccccc21 [SMR000026956]
7 | > 66.7 | – | CCC(Sc1nc2c(c(=O)[nH]1)CCC2)C(=O)Nc1cccc(OC)c1 (configuration not stated) [SMR000028729]
8 | > 66.7 | – | O=C(NC1CCCCC1)c1sc(=S)n2c1[nH]c(=O)c1ccccc12 [SMR000030293]
9 | > 66.7 | – | CCC(=O)Nc1c(C#N)c2nc3ccccc3nc2n1-c1ccccc1C [SMR000039884]
10 | > 66.7 | – | Cc1[nH]n2c(=O)c(C#N)c(-c3ccccc3)nc2c1-c1ccccc1 [SMR000047798]
11 | > 66.7 | – | CN1C(=O)/C(=C2\SC(=S)N(C(CCC(=O)O)C(=O)O)C2=O)c2ccccc21 (configuration not stated) [SMR000054993]
12 | > 66.7 | – | CCCc1nc2ccccc2c2nc(N)nn12 [SMR000073509]
13 | > 66.7 | – | Cc1[nH]n2c(=O)c3c(nc2c1-c1ccccc1)CCC3 [SMR000082027]

The remaining lines, values behind:

Row | SMILES | IC50 [µM] | Ki [µM]
14 | Cc1ccc(C)c(-n2c(CNC(=O)c3ccco3)nnc2SCC(=O)N2CCc3ccccc32)c1 [N-[[5-[2-(2,3-dihydroindol-1-yl)-2-oxoethyl]sulfanyl-4-(2,5-dimethylphenyl)-1,2,4-triazol-3-yl]methyl]furan-2-carboxamide] | > 66.7 | –
15 | CCCCNC(=O)c1sc(=S)n2c1[nH]c(=O)c1ccccc12 [N-butyl-5-oxo-1-thioxo-4,5-dihydro[1,3]thiazolo[3,4-a]quinazoline-3-carboxamide] | > 66.7 | –
16 | C[N+]1(C)[C@@H]2CC(OC(=O)[C@H](CO)c3ccccc3)C[C@H]1[C@@H]1O[C@@H]12 (some centres not stated) [SCOPOLAMINE METHYL NITRATE] | > 66.7 | –
17 | COc1ccccc1-c1c(C)oc2cc(OC(=O)c3ccco3)ccc2c1=O [[3-(2-methoxyphenyl)-2-methyl-4-oxidanylidene-chromen-7-yl] furan-2-carboxylate] | > 66.7 | –
18 | CCOC(=O)Cc1cc(=O)n2[nH]c(C)c(-c3ccc(Cl)cc3)c2n1 [ethyl 2-[3-(4-chlorophenyl)-2-methyl-7-oxo-1H-pyrazolo[1,5-a]pyrimidin-5-yl]acetate] | > 66.7 | –
19 | COC(=O)c1[nH]c(C)c(C(=O)C2C(=O)C(=O)N(CCCN3CCOCC3)C2c2ccccn2)c1C (configuration not stated) [methyl 4-{[4-hydroxy-1-[3-(4-morpholinyl)propyl]-5-oxo-2-(2-pyridinyl)-2,5-dihydro-1H-pyrrol-3-yl]carbonyl}-3,5-dimethyl-1H-pyrrole-2-carboxylate] | > 66.7 | > 40.3
